Data as given in ChEMBL document CHEMBL1201862, “PubChem BioAssay data set” (2004).
Calls of active or inactive are those of the source.

Key:
Estrogen receptor = biological target: T1, Estrogen receptor (Homo sapiens, UniProt P03372); assay: potentiators of ERα–SRC-1 coactivator binding, dose response, biochemical, TR-FRET, ERα LBD (AID 737)
T1 sequence (P03372 whole entry): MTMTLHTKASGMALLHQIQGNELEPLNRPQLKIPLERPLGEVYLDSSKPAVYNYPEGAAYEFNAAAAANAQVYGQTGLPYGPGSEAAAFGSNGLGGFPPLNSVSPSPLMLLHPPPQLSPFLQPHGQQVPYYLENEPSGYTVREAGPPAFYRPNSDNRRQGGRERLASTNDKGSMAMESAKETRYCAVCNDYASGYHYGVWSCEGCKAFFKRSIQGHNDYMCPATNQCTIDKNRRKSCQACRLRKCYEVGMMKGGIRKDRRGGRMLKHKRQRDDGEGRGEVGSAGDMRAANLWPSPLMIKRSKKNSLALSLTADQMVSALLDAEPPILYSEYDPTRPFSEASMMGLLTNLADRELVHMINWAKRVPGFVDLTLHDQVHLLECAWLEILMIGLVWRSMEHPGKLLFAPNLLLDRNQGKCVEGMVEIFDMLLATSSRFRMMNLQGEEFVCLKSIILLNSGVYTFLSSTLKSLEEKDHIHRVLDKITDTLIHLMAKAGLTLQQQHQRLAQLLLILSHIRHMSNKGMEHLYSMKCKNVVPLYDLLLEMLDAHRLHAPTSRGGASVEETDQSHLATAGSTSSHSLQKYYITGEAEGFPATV

Cytochrome P450 3A4 = Cytochrome P450 3A4 (Homo sapiens, UniProt P08684); conditions: Potency;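 also: confirmatory qHTS run detecting inhibitors and substrates of CYP3A4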
Cytochrome P450 3A4, sequence (P08684 whole entry): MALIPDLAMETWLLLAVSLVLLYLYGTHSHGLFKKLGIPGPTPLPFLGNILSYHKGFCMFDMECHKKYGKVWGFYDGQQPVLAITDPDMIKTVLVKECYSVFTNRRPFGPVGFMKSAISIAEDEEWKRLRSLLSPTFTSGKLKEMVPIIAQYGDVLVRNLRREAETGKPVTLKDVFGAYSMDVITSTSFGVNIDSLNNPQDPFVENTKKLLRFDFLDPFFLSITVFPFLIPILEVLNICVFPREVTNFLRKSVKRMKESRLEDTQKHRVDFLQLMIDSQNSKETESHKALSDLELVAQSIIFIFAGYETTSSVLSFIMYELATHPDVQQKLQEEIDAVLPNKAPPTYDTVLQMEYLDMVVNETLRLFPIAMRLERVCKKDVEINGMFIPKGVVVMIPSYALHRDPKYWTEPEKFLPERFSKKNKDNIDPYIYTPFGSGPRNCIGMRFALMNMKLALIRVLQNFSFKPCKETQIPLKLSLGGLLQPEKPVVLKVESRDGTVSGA

Cytochrome P450 2D6 = Cytochrome P450 2D6 (Homo sapiens, UniProt P10635); assay: qHTS Assay for Inhibitors and Substrates of Cytochrome P450 2D6. [Related pubchem assays: 410 ]; type: ADME; conditions: read-out: Potency
Cytochrome P450 2D6, sequence (P10635 whole entry): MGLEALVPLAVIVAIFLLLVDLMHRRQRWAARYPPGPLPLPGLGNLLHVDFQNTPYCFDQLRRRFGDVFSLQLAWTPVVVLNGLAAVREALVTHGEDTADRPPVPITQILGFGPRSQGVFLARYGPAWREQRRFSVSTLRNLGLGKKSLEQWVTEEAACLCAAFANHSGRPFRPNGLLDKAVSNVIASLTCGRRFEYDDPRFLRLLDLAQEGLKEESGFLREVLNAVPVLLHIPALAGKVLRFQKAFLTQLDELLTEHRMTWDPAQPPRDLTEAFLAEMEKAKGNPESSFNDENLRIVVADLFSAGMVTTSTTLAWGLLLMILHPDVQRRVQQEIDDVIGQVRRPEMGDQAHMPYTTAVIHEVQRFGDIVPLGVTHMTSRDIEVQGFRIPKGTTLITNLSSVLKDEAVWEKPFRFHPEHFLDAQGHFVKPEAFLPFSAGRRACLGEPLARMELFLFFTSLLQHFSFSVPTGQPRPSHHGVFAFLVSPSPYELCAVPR

HEK293 = assay: Fluorescence-based counterscreen for potentiators or agonists of NPY-Y1: cell-based high-throughput dose response assay for inhibitors of cyclic nucleotide gated ion channel (CNGC) activity. In this assay, the parental HEK293 cell line transfected with a cyclic-nucleotide gated ion channel (CNGC)-based cAMP sensor is used to measure inhibition of isoproterenol-induced CNGC …; type: functional; conditions: Homo sapiens
[1] = biological target: T2, Neuropeptide Y receptor type 2 (Homo sapiens, UniProt P49146); assay: Fluorescence-based counterscreen for agonists of NPY-Y1: cell-based high-throughput dose response assay for agonists of NPY-Y2.; type: functional
T2 sequence (P49146 whole entry): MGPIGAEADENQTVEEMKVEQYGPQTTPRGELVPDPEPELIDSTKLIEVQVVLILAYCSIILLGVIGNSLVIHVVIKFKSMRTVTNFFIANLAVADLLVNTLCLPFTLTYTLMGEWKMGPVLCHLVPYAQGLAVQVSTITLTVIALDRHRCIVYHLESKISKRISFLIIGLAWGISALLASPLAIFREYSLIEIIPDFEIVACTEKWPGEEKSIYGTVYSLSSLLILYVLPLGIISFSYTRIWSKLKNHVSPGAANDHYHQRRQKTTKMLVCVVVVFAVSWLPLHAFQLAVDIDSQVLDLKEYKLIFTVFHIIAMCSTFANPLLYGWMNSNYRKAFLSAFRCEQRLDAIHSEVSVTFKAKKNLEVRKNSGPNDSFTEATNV

[2] = biological target: T3, Neuropeptide Y receptor type 1 (Homo sapiens, UniProt P25929); assay: Fluorescence-based dose response cell-based high-throughput screening assay for agonists of NPY-Y1. [Related pubchem assays: 1697 (Screening assay (NPY-Y1 agonists).), 1359 (Screening assay (NPY-Y2 potentiators or agonists).), 1304 (Screening assay (NPY-Y1 potentiators or agonists).), 1704 (Screening assay (CNGC inhibitors).), 1791 (Summary AID.)]; type: functional
T3 sequence (P25929 whole entry): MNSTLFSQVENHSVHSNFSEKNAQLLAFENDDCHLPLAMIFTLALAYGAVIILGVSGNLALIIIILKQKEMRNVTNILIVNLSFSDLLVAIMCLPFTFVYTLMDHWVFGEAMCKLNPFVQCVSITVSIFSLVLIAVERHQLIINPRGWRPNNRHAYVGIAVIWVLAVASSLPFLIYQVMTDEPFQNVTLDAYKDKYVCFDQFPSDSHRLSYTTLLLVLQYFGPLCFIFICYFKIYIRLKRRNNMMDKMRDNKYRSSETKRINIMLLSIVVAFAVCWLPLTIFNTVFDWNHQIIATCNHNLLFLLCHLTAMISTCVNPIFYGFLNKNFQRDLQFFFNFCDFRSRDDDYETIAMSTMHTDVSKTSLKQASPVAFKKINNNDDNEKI

cells [3] = type: functional, cell-based
Nonstructural protein 1 = Nonstructural protein 1 (Influenza A virus, UniProt Q194T2); type: functional, Influenza A virus (A/California/07/2009(H1N1))
Nonstructural protein 1, sequence (Q194T2 whole entry): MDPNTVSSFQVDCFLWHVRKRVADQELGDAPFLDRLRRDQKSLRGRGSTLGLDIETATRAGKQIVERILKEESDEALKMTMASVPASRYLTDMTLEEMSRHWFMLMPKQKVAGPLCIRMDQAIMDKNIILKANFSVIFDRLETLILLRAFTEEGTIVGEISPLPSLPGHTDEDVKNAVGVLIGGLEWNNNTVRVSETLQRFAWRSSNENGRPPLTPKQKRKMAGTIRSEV

[4] = enhancers of respiration in Yfh1-depleted yeast, dose response, Friedreich's ataxia, plus single-dose screen (AID 1465); type: functional;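 also: yeast depleted of Yfh1p frataxin homolog grown on glycerol needing respiration; WST-1 tetrazolium dye reduction as measure of cellular dehydrogenase metabolic activity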
cells [5] = type: functional, cell-based; remark: listed apart in the source
Estrogen receptor beta [6] = biological target: T4, Estrogen receptor beta (Homo sapiens, UniProt Q92731);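 also: recombinant ER-beta bound to coactivator SRC1 peptide in presence of estradiol agonist; inhibitors block coactivator peptide binding and lower the FRET signal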
T4 sequence (Q92731 whole entry): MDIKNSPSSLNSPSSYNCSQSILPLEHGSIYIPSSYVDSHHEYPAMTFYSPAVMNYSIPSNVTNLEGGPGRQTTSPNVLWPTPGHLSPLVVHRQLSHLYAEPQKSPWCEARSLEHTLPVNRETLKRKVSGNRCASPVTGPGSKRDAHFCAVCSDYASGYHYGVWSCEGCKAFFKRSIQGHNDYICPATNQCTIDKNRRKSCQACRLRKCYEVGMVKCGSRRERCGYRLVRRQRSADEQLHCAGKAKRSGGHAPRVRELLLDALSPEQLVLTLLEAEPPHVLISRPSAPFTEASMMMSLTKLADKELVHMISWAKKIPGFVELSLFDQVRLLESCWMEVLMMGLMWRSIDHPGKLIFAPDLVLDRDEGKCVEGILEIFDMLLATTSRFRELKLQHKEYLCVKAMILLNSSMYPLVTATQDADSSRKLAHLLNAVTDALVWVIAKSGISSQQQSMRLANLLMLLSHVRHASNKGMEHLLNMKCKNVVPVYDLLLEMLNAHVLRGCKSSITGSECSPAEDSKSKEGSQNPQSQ

Procathepsin L = Procathepsin L (Homo sapiens, UniProt P07711)
Procathepsin L, sequence (P07711 whole entry): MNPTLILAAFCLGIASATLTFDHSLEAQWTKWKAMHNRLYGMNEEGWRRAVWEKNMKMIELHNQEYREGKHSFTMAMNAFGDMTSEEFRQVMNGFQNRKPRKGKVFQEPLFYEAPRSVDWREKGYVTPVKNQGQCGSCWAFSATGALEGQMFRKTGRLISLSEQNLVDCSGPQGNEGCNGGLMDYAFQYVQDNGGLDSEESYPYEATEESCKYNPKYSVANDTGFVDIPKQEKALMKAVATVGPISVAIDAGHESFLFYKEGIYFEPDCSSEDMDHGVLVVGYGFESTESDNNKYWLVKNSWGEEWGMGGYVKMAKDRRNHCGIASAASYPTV

Estrogen receptor beta [7] = biological target: T4, Estrogen receptor beta; assay: ERβ–SRC-3 coactivator interaction inhibitors, confirmation, orthogonal assay, biochemical, ELISA, streptavidin-HRP readout (AID 1060)
Large T antigen = Large T antigen (Simian virus 40, UniProt P03070); type: functional, Betapolyomavirus macacae;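 also: Confirmatory-stage PubChem screen for compounds that inhibit SV40 T antigen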
Large T antigen, sequence (P03070 whole entry): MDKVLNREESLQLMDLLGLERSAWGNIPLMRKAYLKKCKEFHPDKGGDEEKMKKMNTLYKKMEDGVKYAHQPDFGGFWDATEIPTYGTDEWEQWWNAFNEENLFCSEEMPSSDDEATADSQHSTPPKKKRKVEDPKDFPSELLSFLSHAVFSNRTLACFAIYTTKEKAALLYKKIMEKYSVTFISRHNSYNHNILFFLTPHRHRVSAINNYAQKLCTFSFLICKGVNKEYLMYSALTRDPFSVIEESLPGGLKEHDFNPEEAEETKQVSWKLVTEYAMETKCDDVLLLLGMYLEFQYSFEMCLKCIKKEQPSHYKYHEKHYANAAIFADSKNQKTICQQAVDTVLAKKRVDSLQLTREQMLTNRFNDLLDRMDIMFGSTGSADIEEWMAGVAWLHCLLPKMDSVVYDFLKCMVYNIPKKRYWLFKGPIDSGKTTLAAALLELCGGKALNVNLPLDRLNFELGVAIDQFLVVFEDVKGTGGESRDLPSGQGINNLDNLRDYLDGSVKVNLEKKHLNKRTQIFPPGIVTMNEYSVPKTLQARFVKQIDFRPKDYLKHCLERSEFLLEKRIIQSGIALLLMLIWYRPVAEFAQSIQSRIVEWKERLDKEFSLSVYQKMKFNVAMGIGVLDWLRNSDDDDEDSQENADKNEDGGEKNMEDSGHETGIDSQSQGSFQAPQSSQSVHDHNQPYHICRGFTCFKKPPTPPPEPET

Aspartyl aminopeptidase = Aspartyl aminopeptidase (Plasmodium falciparum 3D7, UniProt Q8I2J3)
Aspartyl aminopeptidase, sequence (Q8I2J3 whole entry, the tested form may be a part): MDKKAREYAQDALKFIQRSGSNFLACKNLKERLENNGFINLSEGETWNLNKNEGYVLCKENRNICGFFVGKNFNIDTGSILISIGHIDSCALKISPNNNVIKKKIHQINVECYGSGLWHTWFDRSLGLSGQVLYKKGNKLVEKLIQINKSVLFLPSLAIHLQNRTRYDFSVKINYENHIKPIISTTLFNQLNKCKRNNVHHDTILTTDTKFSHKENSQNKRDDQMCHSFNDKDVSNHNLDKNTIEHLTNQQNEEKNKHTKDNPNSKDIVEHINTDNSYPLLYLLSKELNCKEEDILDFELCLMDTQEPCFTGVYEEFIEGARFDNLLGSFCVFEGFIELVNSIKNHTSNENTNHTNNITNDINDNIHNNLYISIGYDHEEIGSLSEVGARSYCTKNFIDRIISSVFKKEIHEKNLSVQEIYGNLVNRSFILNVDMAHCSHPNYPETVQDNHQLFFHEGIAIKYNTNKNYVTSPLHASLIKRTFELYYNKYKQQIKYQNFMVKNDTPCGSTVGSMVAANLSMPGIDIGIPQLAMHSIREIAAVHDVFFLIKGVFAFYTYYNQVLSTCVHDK

[8] = biological target: T5, RNA-binding protein pos-1 (Caenorhabditis elegans, UniProt G5EF15); assay: inhibitors of POS-1/mex-3 RNA binding, dose response, biochemical, fluorescence polarization (AID 1964);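 also: purified POS-1 fused to maltose binding protein made in E. coli; potency of compounds blocking POS-1 binding to fluorescent RNA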
T5 sequence (G5EF15 whole entry): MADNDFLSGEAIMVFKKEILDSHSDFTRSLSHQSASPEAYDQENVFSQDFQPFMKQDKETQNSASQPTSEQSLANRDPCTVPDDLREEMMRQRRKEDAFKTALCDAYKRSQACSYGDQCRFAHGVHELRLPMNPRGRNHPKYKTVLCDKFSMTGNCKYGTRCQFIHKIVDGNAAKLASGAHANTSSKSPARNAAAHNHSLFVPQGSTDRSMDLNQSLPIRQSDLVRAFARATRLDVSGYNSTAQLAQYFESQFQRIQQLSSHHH

Leucine aminopeptidase = biological target: T6, Leucine aminopeptidase (Plasmodium falciparum 3D7, UniProt Q8IL11); assay: P. falciparum M17LAP inhibitors, primary screen, biochemical, fluorogenic H-Leu-NHMec substrate, 1536-well (AID 1619); type: functional
T6 sequence (Q8IL11 whole entry): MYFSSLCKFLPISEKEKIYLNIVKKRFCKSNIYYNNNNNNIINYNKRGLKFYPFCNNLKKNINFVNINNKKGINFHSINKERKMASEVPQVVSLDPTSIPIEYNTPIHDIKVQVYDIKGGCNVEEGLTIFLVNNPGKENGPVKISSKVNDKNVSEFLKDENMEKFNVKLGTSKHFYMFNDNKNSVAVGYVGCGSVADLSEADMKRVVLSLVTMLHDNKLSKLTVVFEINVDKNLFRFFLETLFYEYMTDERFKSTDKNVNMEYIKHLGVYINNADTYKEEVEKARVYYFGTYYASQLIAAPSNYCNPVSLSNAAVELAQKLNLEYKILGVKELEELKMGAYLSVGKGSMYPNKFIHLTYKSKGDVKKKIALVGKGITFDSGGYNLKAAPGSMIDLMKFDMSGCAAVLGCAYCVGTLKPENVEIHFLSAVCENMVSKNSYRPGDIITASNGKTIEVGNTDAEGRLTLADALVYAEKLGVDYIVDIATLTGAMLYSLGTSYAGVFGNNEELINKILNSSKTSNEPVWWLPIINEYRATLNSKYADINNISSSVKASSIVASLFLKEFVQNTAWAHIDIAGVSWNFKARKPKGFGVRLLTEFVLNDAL

[9] = biological target: T7, Zinc finger protein mex-5 (Caenorhabditis elegans, UniProt Q9XUB2); assay: MEX-5/TCR-2 RNA interaction inhibitors, dose response, biochemical, C. elegans, fluorescence polarization (AID 1960)
T7 sequence (Q9XUB2 whole entry): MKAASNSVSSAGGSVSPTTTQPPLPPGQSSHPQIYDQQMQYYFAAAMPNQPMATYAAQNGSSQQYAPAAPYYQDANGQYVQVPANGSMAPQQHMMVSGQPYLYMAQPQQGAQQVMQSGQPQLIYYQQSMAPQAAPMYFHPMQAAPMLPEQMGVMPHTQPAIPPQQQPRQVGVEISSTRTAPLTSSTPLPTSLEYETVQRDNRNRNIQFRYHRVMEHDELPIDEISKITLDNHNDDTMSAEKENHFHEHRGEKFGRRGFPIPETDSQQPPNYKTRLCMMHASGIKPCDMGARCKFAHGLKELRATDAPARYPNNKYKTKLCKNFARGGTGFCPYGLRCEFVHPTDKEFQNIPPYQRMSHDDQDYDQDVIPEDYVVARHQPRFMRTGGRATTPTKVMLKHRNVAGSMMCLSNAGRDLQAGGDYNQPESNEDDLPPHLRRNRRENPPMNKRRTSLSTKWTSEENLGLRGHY

## CSc1nnc2c(n1)OC(c1ccsc1)N(C(C)=O)c1ccccc1-2 (stereo not drawn)
Estrogen receptor
  EC50: 22.6 µM (not active)

## C=CCOCC/C=C1/c2ccccc2C(OC)C1C (stereo not drawn)
Cytochrome P450 3A4
  AC50: 3.16 µM (inconclusive)
Cytochrome P450 2D6
  AC50: 3.16 µM (inconclusive)

## COc1ccc(-n2nc3ccc(NS(C)(=O)=O)cc3n2)cc1Cl
HEK293
  IC50: > 35.4 µM (not active)
[1]
  EC50: > 35.4 µM (not active)
[2]
  EC50: > 35.4 µM (not active)

## COc1ccc(O)c(/C=N/NC(=S)Nc2cccc(S(=O)(=O)N(C)C)c2)c1
Cells [3]
  EC50: > 350 µM (not active)
Nonstructural protein 1
  IC50: 8.98 µM (active)
[4]
  EC50: > 100 µM (active)
Cells [5]
  EC50: 10.8 µM (active)

## Cc1nc(-c2ccc(O)c(O)c2)cs1
Estrogen receptor beta [6]
  IC50: 10.2 µM (active)
Procathepsin L
  IC50: > 59.6 µM (not active)
Estrogen receptor beta [7]
  IC50: 87.3 µM (not active)
Large T antigen
  IC50: 6.46 µM (active)
Aspartyl aminopeptidase
  IC50: 1.3 µM (active)
[8]
  EC50: 36.6 µM (active)
Leucine aminopeptidase
  IC50: 25.1 µM (active)
[9]
  EC50: 21.3 µM (active)
